Assay results as given in ChEMBL document CHEMBL1156829 (Proc Natl Acad Sci U S A, 2008).

Experiments:
Plasmodium falciparum [1] = assay: NOVARTIS: Inhibition of Plasmodium falciparum W2 (drug-resistant) proliferation in erythrocyte-based infection assay; assay type: functional, organism-based; conditions: Plasmodium falciparum, W2; read-out: EC50
Plasmodium falciparum [2] = assay: NOVARTIS: Inhibition of Plasmodium falciparum 3D7 (drug-susceptible) proliferation in erythrocyte-based infection assay; assay type: functional, organism-based; conditions: Plasmodium falciparum, 3D7
[3] = NOVARTIS: Cytotoxicity against human hepatocellular carcinoma cell line (Huh7); assay type: toxicity, cell-based, Huh-7; conditions: Huh7 cells (hepatocellular carcinoma cell line)

| SMILES | EC50 (Plasmodium falciparum [1]) [nM] | EC50 (Plasmodium falciparum [2]) [nM] | CC50 [3] [nM] |
| --- | --- | --- | --- |
| O=C1c2ccc(-c3nc(-c4ccccc4)[nH]c3-c3ccccc3)cc2-c2cc(-c3[nH]c(-c4ccccc4)nc3-c3ccccc3)ccc21 | 8930 | 9190 | > 100000 |
| O=C(NCc1cccnc1)[C@@H]1C[C@H](NC2CCN(CCc3ccccc3)CC2)CN1Cc1ccc(Cl)cc1 | 592 | 88.5 | 18500 |
| O=C(Nc1ccc(-c2nc3ccccc3[nH]2)cc1)c1ccccc1Oc1ccccc1 | 2140 | 1580 | > 100000 |
| Cn1c(=O)c2c(nc3n2CC(O)CN3c2ccccc2)n(C)c1=O (stereo unspecified) | 162 | 72.6 | > 10000 |
| CCCCOc1ccc(C=CC(=O)NCc2ccco2)cc1 | 717 | 1070 | > 100000 |
| O=C(NC1CCN(CC(O)CN(Cc2ccccc2)S(=O)(=O)c2ccccc2)C1)c1ccsc1 (stereo unspecified) | < 8.62 | 120 | > 10000 |
| O=C1CN(C(=O)CCC2CCCC2)C(c2ccc(F)cc2)c2cc(Cl)ccc2N1 (stereo unspecified) | 180 | 231 | 26300 |
| CCCCCCN(C(=O)COCc1ccccc1)C(CC)c1nc2ccccc2c(=O)n1-c1cccc(Cl)c1 (stereo unspecified) | 75.8 | 42.2 | > 7770 |
| Cc1ccc(-c2nc3cc(NC(=O)c4ccc([N+](=O)[O-])o4)ccc3o2)cc1Br | 6490 | 6920 | 74000 |
| N=C(N)c1ccc(OCCCCCOc2ccc(C(=N)N)cc2)cc1 [PENTAMIDINE] | 68.7 | 66.2 | > 6250 |
| COc1ccc(-c2csc(Nc3ccc(O)cc3)n2)cc1OC | 3210 | 2960 | > 100000 |
| C[N+](C)(CCCC(=O)c1ccc(C(=O)CCC[N+](C)(C)Cc2ccccc2Cl)cc1)Cc1ccccc1Cl | 113 | 21.3 | > 100000 |
| O=C(NCc1ccccc1)NC1CC2CCCC(C1)N2Cc1ccccc1 (stereo unspecified) | 423 | 879 | > 10000 |
| Cc1cc(-c2ccc(O)c(CN3CCCCCC3)c2)c2ccccc2n1 | 345 | 1120 | 55900 |
| CCc1c(C)nc2cc(-c3cc(OC)cc(OC)c3)nn2c1NCCCn1ccnc1 | 185 | 2870 | > 100000 |
| COCCN1C(=O)c2[nH]nc(-c3ccccc3O)c2C1c1ccc(SC)cc1 (stereo unspecified) | 2780 | 7390 | > 87600 |
| NC(=O)Cc1ccccc1 | 9500 | > 12500 | > 100000 |
| CSc1cccc(NC(=O)C2C3C=CC4(O3)C2C(=O)N(C2CC2)C4C(=O)NC2CCCCC2)c1 (stereo unspecified) | < 14.5 | 1750 | > 10000 |
| COc1cccc(C=NNC(=O)CSc2ccccc2C)c1O | 1960 | 7940 | > 100000 |
| CCOC(=O)c1c(CNCCN(CC)CC)n(C)c2cc(Br)c(OC(C)=O)cc12 | 309 | 833 | > 100000 |
| CCOc1cc(/C=C(\C#N)c2nc3ccccc3[nH]2)ccc1OCc1ccccc1C#N | 214 | > 1120 | > 10000 |
| Cc1ccc(CN2C[C@H](n3cnnn3)C[C@H]2C(=O)NCCc2cccc(Cl)c2)c(C)c1 | 1120 | 1320 | > 10400 |
| CC(=O)Nc1cccc(NC(=O)CSc2ccc3nnc(-c4ccc(F)cc4)n3n2)c1 | > 1250 | > 1050 | > 10000 |
| CC(C)N(CCNc1ncnc2c1[nH]c1ccc(Cl)cc12)C(C)C | 252 | 262 | 15200 |
| CN(C)CCCn1c(N)c(-c2nc3ccccc3[nH]2)c2nc(C#N)c(C#N)nc21 | 274 | 463 | 60200 |
| O=C1CSC(=NN=Cc2cccnc2)N1c1ccccc1 | 2490 | > 12500 | > 100000 |
| CCN(CCN1CCN(S(=O)(=O)c2cc(Cl)ccc2Cl)CC1)CC1=CCC2CC1C2(C)C (stereo unspecified) | 289 | 1790 | > 10000 |
